Measurements: patent US20230066156A1, “6-SUBSTITUTED, 22-CYANO HYODEOXYCHOLANIC ANALOGUES AND USES THEREOF” (PRECISION BIO-THERAPEUTICS S.R.L., priority 2019, published 2023)
Several values for one entry are separate records, joined by “and”; a condition that tells them apart may be missing. Equal values may be shown once.

Target: T1, human GPBAR1 (Homo sapiens, UniProt Q8TDU6)
T1 construct: expressed in transfected cells; host or cells: HEK-293T
T1 sequence (Q8TDU6 1-330): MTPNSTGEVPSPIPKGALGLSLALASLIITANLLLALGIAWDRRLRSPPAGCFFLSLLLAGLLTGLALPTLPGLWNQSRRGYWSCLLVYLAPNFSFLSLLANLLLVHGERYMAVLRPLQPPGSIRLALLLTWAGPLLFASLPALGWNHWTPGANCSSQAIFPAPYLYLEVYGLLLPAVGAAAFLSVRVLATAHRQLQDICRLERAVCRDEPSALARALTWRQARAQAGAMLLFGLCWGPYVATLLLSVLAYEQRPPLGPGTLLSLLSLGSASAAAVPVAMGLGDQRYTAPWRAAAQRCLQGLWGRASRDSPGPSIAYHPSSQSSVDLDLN
Assay: GPBAR1 mediated transactivation, CRE-luciferase reporter in transfected HEK-293T cells
Format: cell-based
Method: Selected compounds were tested in vitro on FXR and TGR5/GPBAR1 receptors (Table 1) using a whole cell model transfected with a reporter genes. The activity was evaluated in comparison with chenodeoxycholic acid (CDCA) and TLCA.
CDCA is a primary bile acid that functions as an endogenous ligand for FXR, while TLCA is a physiological ligand for TGR5/GPBAR1. In this assay, HepG2 cells (a liver-derived cell line) were cultured at 37° C. in minimum essential medium with Earl's salts containing 10% fetal bovine serum (FBS), 1% L-glutamine, and 1% penicillin/streptomycin. HEK-293T cells were cultured at 37° C. in D-MEM containing 10% fetal bovine serum (FBS), 1% L-glutamine, and 1% penicillin/streptomycin. The transfection experiments were performed using Fugene HD according to manufactured specifications. Cells were plated in a 24-well plate at 5×10^4 cells/well. For FXR mediated transactivation, HepG2 cells were transfected with 100 ng of pSG5-FXR, 100 ng of pSG5-RXR, 100 ng of pGL4.70 a vector encoding the human Renilla gene and 250 ng of the reporter vector p(hsp27)-TK-LUC containing the FXR response element IR1 cloned from the promoter of heat shock protein 27 (hsp27).
For GPBAR1 mediated transactivation, HEK-293T cells were transfected with 200 ng of pGL4.29, a reporter vector containing a cAMP response element (CRE) that drives the transcription of the luciferase reporter gene luc2P, with 100 ng of pCMVSPORT6-human GPBAR1, and with 100 ng of pGL4.70 a vector encoding the human Renilla gene. In control experiments HEK-293T cells were transfected only with vectors pGL4.29 and pGL4.70 to exclude any possibility that compounds could activate the CRE in a GPBAR1 independent manner. At 24 h post-transfection, cells were stimulated for 18 h with 10 μM TLCA as a control agent or putative GPBAR1 agonists as the same concentration. After treatments, cells were lysed in 100 μL of lysis buffer (25 mM Tris-phosphate, pH 7.8; 2 mM DTT; 10% glycerol; 1% Triton X-100), and 20 μL of cellular lysate was assayed for luciferase activity using the luciferase assay system. Luminescence was measured using Glomax 20/20 luminometer. Luciferase activities were normalized against Renilla activities. Antagonism against FXR of GPBAR1/TGR5 was measured as percent of activity in transactivation assay suing activity of TLCA as example of agonism.
The data on the activity of certain compounds of the invention on TGR5/GPBAR1 are described in the following table 1. In this table, activities for compounds of the invention on GPBAR1 was compared to those of the reference compound TLCA. For % of activity, each compound was tested at the concentration of 10 microM and transactivation activity of TLCA on CRE (i.e. TGR5/GPBAR1) was considered equal to 100%. For selectivity toward FXR, activity was assessed in HepG2 cells transfected with an FXR responsive element (IR1) cloned upstream to the luciferase gene. For calculation of efficacy data, maximal transactivation of IR1 caused by each compound (10 μM) was compared to maximal transactivation caused by CDCA (10 μM). GPBAR1/FXR selectivity calculated as ratio between % of activity toward GPBAR1 and % of activity toward FXR. Each experiment was conducted in triplicate.

## CC[C@]1(O)C[C@H]2[C@@H]3CC[C@H]([C@H](C)CC#N)[C@@]3(C)CC[C@@H]2[C@@]2(C)CC[C@@H](O)C[C@@H]12 [PBT110B, 3α,6α-dihydroxy-6β-ethyl-24-nor-5β-cholan-23-nitrile]
HEK-293T CRE-luciferase transactivation
  EC50: 300 nM
Compound at 10 microM, HEK-293T, TLCA = 100%, triplicate
  GPBAR1 (% of activity in comparison to 10 μM TLCA): 101.2% and 101.2 ± 4.1%
Ratio between % of activity toward GPBAR1 and % of activity toward FXR
  GPBAR1/FXR selectivity: 8.2
